Data: patent US9738684B2, “N-terminally modified linear and branched polyamine conjugated peptidomimetics as antimicrobials agents” (COUNCIL OF SCIENTIFIC & INDUSTRIAL RESEARCH, priority 2015, dated 2017)
≈ marks a conversion by molar mass, not a printed value. Where “and” joins values, the source holds several entries; their conditions need not be identical. Equal values may be shown once.

Legend:
S. aureus (ATCC 29213) = test: MIC, serial broth dilution; format: cell-based, Staphylococcus aureus; conditions: MHB, 18 h, 37° C.
Protocol: (§1) The peptidomimetics designed in present invention were evaluated as antibacterial therapeutics against a broad range of bacterial strains by broth microdilution method. The antibacterial activity of the peptidomimetics was reported in terms of the minimum inhibitory concentrations (MIC).
(§2) Following bacterial strains were used in this study: S. aureus (ATCC 29213), methicillin resistant S. aureus (ATCC 33591), Staphylococcus epidermidis (ATCC 12228), methicillin resistant Staphylococcus epidermidis(ATCC 51625), Enterococcus faecalis (ATCC 7080), Escherichia coli (ATCC 11775), and Acinetobacter baumannii (ATCC 19606). Antibacterial activity was evaluated using a modified serial broth dilution method in accordance with Clinical Laboratory Standard Institute guidelines [Methods for dilution antimicrobial susceptibility tests for bacteria that grow aerobically-7th ed. Approved standard M7-A7. Clinical and Laboratory Standards Institute, Wayne, Pa., Biochim. Biophys. Acta 1798:1864-1875, 2010.]. Briefly, the inoculums were prepared from mid-log phase bacterial cultures. Peptidomimetics were incubated with bacterial suspension in Muller Hinton broth media (10^5 CFU/mL) in 96 well microtitre plate. The plates were incubated overnight with agitation (200 rpm) at 37° C. After 18 h, absorbance was measured at 630 nm. Cultures without test peptidomimetics were used as positive control. Un-inoculated Mueller Hinton Broth (MHB) was used as negative control. Tests were carried out in duplicate on at least three different days. […] For comparison standard peptide antibiotics vancomycin (VAN) and polymyxin B (PMB) were also assayed under identical conditions (Table 2). […] Further, antibacterial activity of active peptidomimetics 1c and 1d were also evaluated against MRSA in presence of 25% v/v human serum as well as bovine serum.

[1] = test system: methicillin resistant S. aureus (ATCC 33591); test: MIC, serial broth dilution; format: cell-based, Staphylococcus aureus; conditions: MHB, 18 h, 37° C.
Protocol: as §1, §2

[2] = test system: Enterococcus faecalis (ATCC 7080); test: MIC, serial broth dilution; format: cell-based; conditions: MHB, 18 h, 37° C.
Protocol: as §1, §2

[3] = test system: Staphylococcus epidermidis (ATCC 12228); test: MIC, serial broth dilution; format: cell-based; conditions: MHB, 18 h, 37° C.
Protocol: as §1, §2

[4] = test system: methicillin resistant Staphylococcus epidermidis (ATCC 51625); test: MIC, serial broth dilution; format: cell-based; conditions: MHB, 18 h, 37° C.
Protocol: as §1, §2

[5] = test system: Escherichia coli (ATCC 11775); test: MIC, serial broth dilution; format: cell-based; set-up: MIC E. coli. (ATCC 11775): unit not given here; conditions: MHB, 18 h, 37° C.
Protocol: as §1, §2

[6] = test system: peripheral blood mononuclear cells (PBMCs); test: LDH release cytotoxicity assay; format: cell-based, human; conditions: 20 μg/mL, 24 h
Protocol: For the experiment a protocol as used previously was employed with minor modifications [J. Immunol. Methods, 115:61-69, 1988; Chem. Biol. 20:1286-1295, 2013.]. Briefly, blood was collected from healthy human donors in sodium heparin anticoagulant tubes in accordance with institutional guidelines. The blood was diluted 1:1 with NaCl/Pi (35 mM phosphate buffer, 150 mM NaCl, pH 7.2). Blood cells were separated over histopaque (Sigma-aldrich) by centrifugation for 30 min at 1200 rpm. The PBMCs were collected and washed twice with NaCl/Pi (35 mM phosphate buffer, 150 mM NaCl, pH 7.2). The cells were then re-suspended in complete RPMI 1640 medium (Himedia) supplemented with 10% FBS (Sigma) and quantified by trypan blue exclusion on microscope. PBMCs (1×10^6 cells/mL) in complete media were seeded into a 24-well plate and left in the incubator for 2 h at 37° C. in 5% CO2. The cells were then treated with 1c, 1d and VAN at desired concentrations (20 μg/mL). 2% Triton X-100 was used as a […] control. After 24 h of incubation, the content of each well was transferred to sterile 1.5 mL eppendorf tube and cells were pelleted at 2000 rpm for 10 min. The supernatant was assessed for the release of LDH by using the TOX7 kit (Sigma). […]

MRSA (ATCC 33591) = test: Planktonic MIC in biofilm media (MICb); format: cell-based, Staphylococcus aureus; conditions: TSB with 0.5% NaCl and 0.25% glucose
[7] = test system: MRSA (ATCC 33591) biofilm; test: 24 h preformed mature biofilm (alamar blue, crystal violet); format: cell-based, Staphylococcus aureus; conditions: 20×MICb: 1c 140 μg/mL, 1d 70 μg/mL, VAN 20 μg/mL
Protocol: To evaluate potential of designed active peptidomimetics against MRSA biofilms a methodology as used previously was employed with minor modifications [Antimicrob. Agents Chemother., 57:2726-2737, 2013]. Briefly, freshly inoculated MRSA (ATCC 33591) was grown in biofilm growth media (TSB supplemented with 0.5% w/v NaCl and 0.25% w/v glucose) overnight. Next day, the culture was diluted in fresh biofilm growth media to 10^5 CFU/mL. 200 μl of diluted culture was dispensed in wells of a 96-well polystyrene plate for biofilm formation. […] Biofilm cultures were re-incubated at 37° C. for 24 h. After removal of medium, the biofilms were further washed twice with sterile NaCl/Pi buffer and assessed for metabolic activity (alamar blue assay) and biomass quantification (Crystal violet assay).

[8] = test system: MRSA (ATCC 33591) biofilm; test: Confocal laser scanning microscopy of biofilm, thickness by z-stacking; format: cell-based, Staphylococcus aureus; conditions: for thickness of mature biofilm after treatment: 10×MICb, untreated 23.6±2.5 μm; for thickness of mature biofilm after treatment / confocal observation of mature biofilm: 24 h preformed biofilm; for confocal observation of mature biofilm: 20×MICb; for average thickness of biofilm, biofilm formation: MICb; for average thickness of biofilm, biofilm formation / thickness of biofilm, biofilm formation: control 14.3±1.4 μm; for thickness of biofilm, biofilm formation: sub-MICb
From the text: For visualization of biofilm and validation of AB and CV assay we performed confocal microscopy. For this biofilm formation was induced on glass cover slips in a 6-well plate. The biofilm on cover slips were washed twice with sterile NaCl/Pi buffer and stained with a Live/Dead kit reagent (Invitrogen, Molecular Probes, Eugene, Oreg., USA) following the manufacturer's instructions. This stain contains DNA binding dyes SYTO 9 (green fluorescent) and propidium iodide (PI; red fluorescent). When used alone, SYTO 9 stains all bacteria in a population, those with intact as well as damaged membranes. In contrast, PI penetrates only bacteria with damaged membranes, causing a reduction in the SYTO 9 stain (green fluorescence). The biofilms were examined with an Olympus flow view FV1000 (confocal laser scanning microscope, CLSM). The experiment was repeated three times on three different days and representative data is presented here.
We next measured the thickness of biofilm using z-stacking in confocal microscopy. […] At MICb, 1c and 1d prevented formation of biofilm in which very few cells were adhered to substratum with observed average thickness of 3.9±1.1 μm and 3.5±0.6 μm, respectively. Furthermore, at sub-MICb concentration the observed thicknesses were 5.2±0.3 μm and 5.8±0.4 μm (FIG. 7A.b and FIG. 7A.d).

Row | SMILES | MIC S. aureus (ATCC 29213) (S. aureus (ATCC 29213)) | MIC MRSA (ATCC 33591) [1] | MIC E. facaelis (ATCC 7080) [2] | MIC S. epidermidis (ATCC 12228) [3] | MIC MRSE (ATCC 51625) [4] | MIC E. coli. (ATCC 11775) [5] | % LDH release against peripheral blood mononuclear cells [6] | MICb, planktonic MIC in biofilm media (MRSA (ATCC 33591)) | biomass remaining compared to control, 24 h pre-formed biofilm (crystal violet) [7] | thickness of mature biofilm after treatment [8] | confocal observation of mature biofilm [8] | average thickness of biofilm, biofilm formation [8] | thickness of biofilm, biofilm formation [8]
1 | NCCCNCCCCNCCCNC(=O)C(Cc1c[nH]c2ccccc12)NC(=O)C(Cc1c[nH]c2ccccc12)NC(=O)Cc1ccc(C(F)(F)F)cc1 (centres unmarked) [1c] | 0.0017 µg/mL (≈ 0.00223 µM) | 3.5 µg/mL (≈ 4.6 µM) | 0.0284 µg/mL (≈ 0.0373 µM) | 1.7 µg/mL (≈ 2.23 µM) | 0.0035 µg/mL (≈ 0.0046 µM) | 56.8 | 5.78±6.58% and 5.78% | 7.1 µg/mL | 24.0±13.4% | 7.1±1.5 μm | most of the cells lost their integrity | 3.9±1.1 μm | 5.2±0.3 μm
2 | CCCCCCCCCC(=O)NC(Cc1c[nH]c2ccccc12)C(=O)NC(Cc1c[nH]c2ccccc12)C(=O)NCCCNCCCCNCCCN (centres unmarked) [1d] | 0.0017 µg/mL (≈ 0.00233 µM) | 1.7 µg/mL (≈ 2.33 µM) | 0.0035 µg/mL (≈ 0.0048 µM) | 1.7 µg/mL (≈ 2.33 µM) | 0.0017 µg/mL (≈ 0.00233 µM) | 14.2 | 17.56±10.15% and 17.5% | 3.5 µg/mL | 21.4±9.2% | 7.0±1.0 μm | most of the cells lost their integrity | 3.5±0.6 μm | 5.8±0.4 μm
